Laboratory results as given in publication PMC9555310, “Novel inhibitors and activity-based probes targeting serine proteases” (Frontiers in Chemistry, 2022).

Experiments:
cathepsin B (CTSB) = target: T1, cathepsin B (CTSB) (Homo sapiens, UniProt P07858); assay: Off-target study, residual activity after 2 min pre-incubation: cathepsin B; type: biochemical; conditions: 25 and 50 μM, 0.1 M MES pH 6.1, 1 mM EDTA, 37°C
T1 construct: purchased R and D Systems
Experimental: FIGURE 5 Results of “off-target“ studies. NAP849 (A), NAP800 (B) and NAP830 (C) were tested against trypsin, chymotrypsin, and NE. Samples (approx. 0.01 μg) of each protease were incubated with the indicated concentrations of test compound for 2 min, in PBS, pH 7.4, at 37°C. (D) NAP858, NAP962 and NAP849 were tested against cathepsin B at the indicated concentrations in 0.1 M MES, pH 6.1, containing 1 mM EDTA, for 2 min, at 37°C. Aliquots (approx. 10 μL) of each incubation sample were then added to a fresh sample (990 μL) of PBS for the serine proteases and MES for cathepsin B, containing the appropriate substrate for each protease, to measure their residual activity. Controls incubations were performed in the absence of test compound, but in the presence of an appropriate volume of DMF vehicle used to prepare stock solutions of each inhibitor under study.
Two elements were investigated regarding possible “off-target” effects–determining the extent of cross-reactivity of each of the new putative ABPs between the various serine protease family members and assessing their collateral inhibitory action against another mechanistic class–the cysteine proteases, using cathepsin B (CTSB) as an exemplar.
For assays requiring a pre-incubation step enzyme and inhibitor in assay buffer were incubated together, at 37 °C, for 2 min, with gentle agitation. The reaction mixture was then aliquoted (50 μL) in duplicate on a black 96-well microtitre plate followed by addition of substrate to make a final concentration of 50 μM in a total volume of 100 μL. The fluorescence production was then measured as described for the previous procedure.
Assays with Cathepsin B required a pre-activation step of the protease prior to use in the fluorogenic enzyme assays. Cathepsin B was diluted to 10 μg/ml in activation buffer (0.1 M MES, pH 6.1, containing 1 mM EDTA and 2 mM DTT) and left to stand at room temperature for 15 minutes. Activated Cathepsin B was then diluted (1:50 to give 10 ng/50 μl) with assay buffer (activation buffer minus the DTT) prior to use as described previously.

plasmin = target: T2, plasmin (Homo sapiens, UniProt P00747); assay: Activity-based profiling of plasmin (SDS-PAGE, streptavidin-HRP western blot); type: binding; conditions: 50 μM, 30 min, 37°C
T2 construct: purchased Sigma-Aldrich (supplement); R&D Systems; host or cells: human plasma
Experimental: Samples of recombinant protease (trypsin, plasmin, thrombin, chymotrypsin, or HNE, as indicated in the relevant figure legends) were treated with each of the newly synthesized compounds at a concentration of 50 μM, for 30 min, at 37°C. A control sample (no ABP) was prepared by treating the recombinant protease with solvent vehicle (DMF) only, used to prepare the stock solution of each ABP. Samples were also pre-treated (±90°C for 30 min) before being incubated with each putative ABP. With trypsin and thrombin, further samples were prepared where Z-Arg^P-(OPh)2 or NAP559, respectively, was added 30 min prior to the addition of the ABP under examination. All treated samples were then denatured with SDS containing reducing treatment buffer (10 min at 95°C), followed by resolution by SDS-PAGE and subjected to Western blotting. Resolved proteins were then transferred onto the nitrocellulose membrane and labeled with streptavidin-HRP. The ABP–protease complex was then visualized following treatment with Luminata Forte HRP substrate.
FIGURE 8 Activity Based Profiling of Trypsin-like serine proteases. (A) trypsin was treated (±) with NAP830, for 30 min, at 37°C (± pretreatment with Z-Arg^P-(OPh)2). (B) thrombin (1 […]) was pre-treated with various concentrations of NAP559 (30 min, at 37°C) followed by treatment (±) with NAP858 for 30 min, at 37°C. (C) Plasmin was treated in turn with QUBTL1, NAP962 and NAP830, (± pre-heat inactivation at 95°C, for 10 min) for 30 min, at 37°C. […]
Following transfer, the extra protein binding sites on the membrane were blocked by addition of 3% (w/v) BSA in TBST (20 mM Tris, 137 mM NaCl, 1% (v/v) Tween 20, pH 7.6) and agitated gently at room temperature for 30 minutes. The biotin-labelled proteases were then detected by addition of Streptavidin-HRP (Vector Laboratories) in 3% (w/v) BSA in TBST at a concentration of 1:20000, for 1 hour at room temperature. […]

T2 sequence (P00747 581-810 limits assumed): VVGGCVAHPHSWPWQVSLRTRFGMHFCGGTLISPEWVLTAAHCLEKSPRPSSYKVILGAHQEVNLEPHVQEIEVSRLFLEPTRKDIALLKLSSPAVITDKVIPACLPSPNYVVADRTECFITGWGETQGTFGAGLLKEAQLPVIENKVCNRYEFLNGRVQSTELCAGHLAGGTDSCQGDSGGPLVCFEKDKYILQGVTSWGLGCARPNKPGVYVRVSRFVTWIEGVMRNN
T2 sequence (P00747 97-580 partner limits assumed): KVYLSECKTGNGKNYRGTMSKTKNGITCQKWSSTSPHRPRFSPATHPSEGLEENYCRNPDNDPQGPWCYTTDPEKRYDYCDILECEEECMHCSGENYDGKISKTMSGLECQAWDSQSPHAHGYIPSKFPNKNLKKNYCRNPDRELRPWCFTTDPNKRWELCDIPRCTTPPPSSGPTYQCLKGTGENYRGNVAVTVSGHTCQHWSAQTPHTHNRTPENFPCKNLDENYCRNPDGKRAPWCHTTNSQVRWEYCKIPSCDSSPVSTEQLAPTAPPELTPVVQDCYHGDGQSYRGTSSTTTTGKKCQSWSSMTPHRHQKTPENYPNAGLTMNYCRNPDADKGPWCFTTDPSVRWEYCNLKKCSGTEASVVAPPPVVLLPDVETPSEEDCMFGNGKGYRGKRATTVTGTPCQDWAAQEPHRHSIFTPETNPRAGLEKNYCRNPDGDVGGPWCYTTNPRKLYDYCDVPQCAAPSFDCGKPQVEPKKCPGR

Row | SMILES | inhibitory activity against CTSB (cathepsin B (CTSB)) | labelling of plasmin by ABP (western blot) (plasmin)
1 | NCCCCN(CC(=O)NCC(=O)NCC(=O)NCCCOCCOCCOCCCNC(=O)CCCCC1SCC2NC(=O)NC21)C(=O)ON1C(=O)CCC1=O (stereo not drawn) [NAP830, Succinimidoyl-CO-NLys-Gly-Gly-PEG-Biotin] | none of the three carbamates tested exhibited any inhibitory activity against CTSB | A band corresponding to the light (catalytic) chain of plasmin (26 kDa) was visible
2 | CC(C)N(CC(=O)NCCCOCCOCCOCCCNC(=O)CCCCC1SCC2NC(=O)NC21)C(=O)CN(Cc1ccccc1)C(=O)CN(CCCCN)C(=O)ON1C(=O)CCC1=O (stereo not shown) [NAP962, Succinimidoyl-CO-NLys-NPhe-NVal-PEG-Biotin] | none of the three carbamates tested exhibited any inhibitory activity against CTSB | A band corresponding to the light (catalytic) chain of plasmin (26 kDa) was visible
